Literature values in PMC2912446 (ACS chemical biology, 2010).

System: GPR30
Details: read-out: GPR30 binding affinity; parent small molecules

| IC50 | Compound |
| --- | --- |
| ~0.011 µM | CC(=O)c1ccc2c(c1)[C@@H]1C=CC[C@@H]1[C@H](c1cc3c(cc1Br)OCO3)N2 [G-1] |
